Test results published in patent publication US20230219978A1, “COMPOUND HAVING MACROCYCLIC STRUCTURE AND USE THEREOF” (SCINNOHUB PHARMACEUTICAL CO., LTD, priority 2020, published 2023).

Columns and labels:
Assay type in all cases: biochemical
[1] = biological target: T1, RET wt (Homo sapiens, UniProt P07949); experiment: In vitro kinase activity assay (mobility shift assay), RET wild type; details: ATP 16 μM, reaction time 60 min
T1 construct: purchased Carna 08-159
Experimental: (§1) The IC50 (half inhibitory concentration) values of the compounds were used as an indicator to evaluate the inhibitory effect of the compound on RET wild-type, RET mutant, TRKa, SRC, BTK and/or mutated BTK kinase.
(§2) Using the method of Mobility shift assay, the compounds were tested for inhibitory activity against the following kinases: RET wild type, RET mutant, TRKa, SRC, BTK and/or mutated BTK. The initial concentration of the test compound was 1000 nM, 3-fold dilution, 10 concentrations, detected in a well for each concentration.
(§3) 20 mM hydroxyethylpiperazineethanesulfonic acid (Hepes) (pH 7.5) buffer, 10 mM MgCl2, 1 mM ethylene glycol bis(aminoethyl ether)tetraacetic acid (EGTA), 0.02% polyoxyethylene lauryl ether (Brij35), 0.02 mg/ml […] (BSA), 0.1 mM Na3VO4, 2 mM dithiothreitol (DTT), 1% DMSO.
(§4) The test compounds were dissolved in 100% dimethyl sulfoxide (DMSO) system, and prepared as 10 mM for use, and stored in a nitrogen cabinet away from light.
(§5) • (1) Preparing 1× kinase reaction buffer. • (2) Preparation of compound concentration gradient: the initial concentration of the compounds was 1000 nM, which was diluted as 100-fold final concentration of solution in 100% dimethyl sulfoxide (DMSO) in a 384-well plate. The compound was accurately 3-fold diluted with the kinase buffer solution, 10 concentrations in total, and the final concentration was 0.0508 nM. The 100-fold final concentration of solution in 100% dimethyl sulfoxide (DMSO) was obtained by dilution in 384 source plate. The liquid separator Echo 550 was used to transfer 250 nl of 100-fold final concentration of compound to the target 384 well plate. 250 nl of DMSO was added to the positive and negative control wells. • (3) 2.5-fold final concentration of kinase solution was prepared by the 1× kinase buffer. • (4) 10 4, of 2.5-fold final concentration of kinase solution was added to the compound well and the positive control well, respectively; 10 4, of 1× kinase buffer was added to the negative control well. • (5) After centrifuging at 1000 rpm for 30 second, the reaction plate was shaken and mixed, followed by incubation at room temperature for 10 min. • (6) a mixed solution of 25/15-fold final concentration of adenosine triphosphate (ATP) and kinase substrate was prepared by 1× kinase buffer. • (7) The mixed solution (15 μL) of 25/15-fold final concentration of adenosine triphosphate (ATP) and substrate was added to initiate the reaction. • (8) 384-well plate was centrifuged at 1000 rpm for 30 second, shaken and mixed well, and then incubated at room temperature for 30-240 min. • (9) After stopping the kinase reaction, the plate was centrifugated at 1000 rpm for 30 second, shaken and mixed well. • (10)The conversion rate was read with Caliper EZ Reader.
(§6) wherein Conversion%_sample is the conversion rate reading of the sample; Conversion%_min: the mean value of negative control wells, representing the conversion rate reading of wells without enzymes; Conversion%_max: the mean value of positive control wells, representing the conversion rate reading of wells without compound inhibition.
(§7) The log value of concentration was taken as the X axis, and the percentage inhibition rate was taken as the Y axis. Graphpad 6.0 analysis software was used to fit the dose-response curve, so as to obtain the IC50 value of each compound on the enzyme activity

[2] = biological target: T2, TRKa (Homo sapiens, UniProt P04629); experiment: In vitro kinase activity assay (mobility shift assay), TRKa; details: ATP 47.8 μM, reaction time 30 min
T2 construct: purchased Carna 08-186
Experimental: as §1, §2, §3, §4, §5, §6, §7

[3] = biological target: T3, BTK (Homo sapiens, UniProt Q06187); experiment: In vitro kinase activity assay (mobility shift assay), BTK; details: ATP 71 μM, reaction time 30 min
T3 construct: purchased Carna 08-180
Experimental: as §1, §2, §3, §4, §5, §6, §7

[4] = biological target: T4, RET G810R (Homo sapiens, UniProt P07949, G810R); experiment: In vitro kinase activity assay (mobility shift assay), RET G810R; details: ATP 201 μM, reaction time 4 h
T4 construct: purchased Proqinase 1724-0000-1
Experimental: as §1, §2, §3, §4, §5, §6, §7

[5] = biological target: T5, RET V804M (Homo sapiens, UniProt P07949, V804M); experiment: In vitro kinase activity assay (mobility shift assay), RET V804M; details: ATP 5.4 μM, reaction time 60 min
T5 construct: purchased signalchem R02-12GG
Experimental: as §1, §2, §3, §4, §5, §6, §7

T1 sequence (P07949 29-1114): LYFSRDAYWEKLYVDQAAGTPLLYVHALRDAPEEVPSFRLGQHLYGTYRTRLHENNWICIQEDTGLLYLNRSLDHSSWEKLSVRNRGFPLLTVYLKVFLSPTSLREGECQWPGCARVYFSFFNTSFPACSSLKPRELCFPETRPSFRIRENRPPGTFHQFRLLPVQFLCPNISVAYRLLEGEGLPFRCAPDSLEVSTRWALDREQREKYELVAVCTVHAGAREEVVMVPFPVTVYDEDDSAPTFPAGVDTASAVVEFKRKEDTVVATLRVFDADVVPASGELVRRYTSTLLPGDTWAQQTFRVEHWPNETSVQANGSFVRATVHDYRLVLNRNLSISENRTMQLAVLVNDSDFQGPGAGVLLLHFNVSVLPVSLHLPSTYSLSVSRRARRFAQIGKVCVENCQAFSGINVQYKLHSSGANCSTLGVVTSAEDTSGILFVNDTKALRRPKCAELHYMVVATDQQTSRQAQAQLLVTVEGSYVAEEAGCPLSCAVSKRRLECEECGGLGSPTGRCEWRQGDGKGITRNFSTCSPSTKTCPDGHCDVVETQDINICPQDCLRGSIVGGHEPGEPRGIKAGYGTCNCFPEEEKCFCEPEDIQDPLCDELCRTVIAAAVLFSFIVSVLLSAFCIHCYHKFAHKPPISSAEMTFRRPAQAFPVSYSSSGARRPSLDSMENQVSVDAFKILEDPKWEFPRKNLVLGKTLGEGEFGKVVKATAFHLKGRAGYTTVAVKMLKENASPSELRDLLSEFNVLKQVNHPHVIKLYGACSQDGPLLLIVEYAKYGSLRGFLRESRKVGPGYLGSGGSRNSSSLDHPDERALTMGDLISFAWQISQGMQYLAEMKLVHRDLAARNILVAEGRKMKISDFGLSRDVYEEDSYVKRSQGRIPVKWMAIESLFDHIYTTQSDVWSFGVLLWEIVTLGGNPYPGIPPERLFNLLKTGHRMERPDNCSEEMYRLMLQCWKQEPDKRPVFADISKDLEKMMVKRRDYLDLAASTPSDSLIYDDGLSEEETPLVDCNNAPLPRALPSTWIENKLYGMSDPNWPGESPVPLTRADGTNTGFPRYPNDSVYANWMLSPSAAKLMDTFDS
T4 sequence (P07949 29-1114 G810R): as the sequence (P07949 29-1114) above, with G782R counted along it
T3 sequence (Q06187 whole entry): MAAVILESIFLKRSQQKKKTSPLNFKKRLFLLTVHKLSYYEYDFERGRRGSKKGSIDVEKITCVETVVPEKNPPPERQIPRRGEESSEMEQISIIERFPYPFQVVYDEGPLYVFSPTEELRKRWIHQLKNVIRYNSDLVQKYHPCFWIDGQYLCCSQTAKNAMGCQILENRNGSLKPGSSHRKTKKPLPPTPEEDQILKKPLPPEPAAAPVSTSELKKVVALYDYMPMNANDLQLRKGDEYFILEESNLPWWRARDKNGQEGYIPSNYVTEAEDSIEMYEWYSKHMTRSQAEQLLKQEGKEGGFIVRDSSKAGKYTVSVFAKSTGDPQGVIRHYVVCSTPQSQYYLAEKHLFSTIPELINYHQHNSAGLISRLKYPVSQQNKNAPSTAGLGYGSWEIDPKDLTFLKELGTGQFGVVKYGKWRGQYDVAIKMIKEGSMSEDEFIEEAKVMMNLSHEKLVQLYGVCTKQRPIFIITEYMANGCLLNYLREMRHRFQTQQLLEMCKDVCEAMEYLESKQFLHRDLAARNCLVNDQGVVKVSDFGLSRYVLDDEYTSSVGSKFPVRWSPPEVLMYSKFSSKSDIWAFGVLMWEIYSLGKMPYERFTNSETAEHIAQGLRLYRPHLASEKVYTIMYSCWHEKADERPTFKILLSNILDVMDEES
T2 sequence (P04629 33-796): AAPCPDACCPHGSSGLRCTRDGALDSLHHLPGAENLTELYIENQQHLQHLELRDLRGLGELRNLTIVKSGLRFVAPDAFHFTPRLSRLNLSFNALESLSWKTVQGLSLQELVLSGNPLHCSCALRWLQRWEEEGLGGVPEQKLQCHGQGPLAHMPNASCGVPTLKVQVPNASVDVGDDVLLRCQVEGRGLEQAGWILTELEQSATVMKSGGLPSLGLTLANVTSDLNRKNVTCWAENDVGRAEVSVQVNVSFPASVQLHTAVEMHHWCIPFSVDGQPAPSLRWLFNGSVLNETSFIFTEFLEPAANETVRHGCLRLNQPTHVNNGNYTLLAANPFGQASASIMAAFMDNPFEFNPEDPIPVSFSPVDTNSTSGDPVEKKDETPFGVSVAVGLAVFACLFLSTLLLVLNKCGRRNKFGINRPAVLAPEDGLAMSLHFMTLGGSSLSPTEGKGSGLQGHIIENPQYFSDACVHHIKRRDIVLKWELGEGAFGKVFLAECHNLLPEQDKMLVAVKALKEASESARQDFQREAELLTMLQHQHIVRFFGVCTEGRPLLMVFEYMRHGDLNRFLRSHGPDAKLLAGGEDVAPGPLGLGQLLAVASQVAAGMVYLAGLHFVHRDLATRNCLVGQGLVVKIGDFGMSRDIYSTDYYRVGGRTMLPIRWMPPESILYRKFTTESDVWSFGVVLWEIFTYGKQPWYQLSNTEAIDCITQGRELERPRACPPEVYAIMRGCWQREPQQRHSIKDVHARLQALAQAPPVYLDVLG
T5 sequence (P07949 29-1114 V804M): as the sequence (P07949 29-1114) above, with V776M counted along it

In the case of `O=C1N[C@H]2C[C@H](C2)Oc2ncc(F)cc2CNc2nc3c1cnn3cc2-c1ccccc1` [Compound 29], the IC50 [1] is reported as 0.02 µM and the IC50 [2] is reported as > 10 µM.
With `C[C@H]1CNC(=O)c2cnn3cc(-c4ccc(=O)n(C)c4)c(nc23)NCc2cc(F)cnc2O1` [Compound 20, (S, 1^3E, 1^4E)-4^5-fluoro-6-methyl-1^6-(1-methyl-6-oxo-1,6-dihydropyridin-3-yl)-5-oxa-2,8-diaza-1(5,3)-pyrazolo[1,5-a]pyrimidin-4(3,2)-pyridinacyclononaphan-9-one] the IC50 [1] was > 10 µM and the IC50 [2] was > 10 µM.
For `COc1cc(-c2cn3ncc4c3nc2NCc2cc(F)cnc2O[C@@H](C)CNC4=O)ccn1` [Compound 5, (S, 1^3E, 1^4E)-4^5-fluoro-1^6-(2-methoxypyridin-4-yl)-6-methyl-5-oxa-2,8-diaza-1(5,3)-pyrazolo[1,5-a]pyrimidin-4(3, 2)-pyridinacyclononaphan-9-one], the IC50 [1] was 0.237 µM and the IC50 [2] was > 10 µM.
For `C[C@H]1CNC(=O)c2cnn3cc(O)c(nc23)NCc2cc(F)cnc2O1` [Compound 2, (S, 1^3E, 1^4E)-4^5-fluoro-6-methyl-1^6-hydroxy-5-oxa-2,8-diaza-1(5,3)-pyrazolo[1,5-a]pyrimidina-4(3,2)-pyridinacyclononaphan-9-one], the IC50 [1] was 5.28 µM and the IC50 [2] was 0.046 µM.
In the case of `C[C@H]1CNC(=O)c2cnn3cc(C4=CCCC4)c(nc23)NCc2cc(F)cnc2O1` [Compound 41, (S, 1^3E, 1^4E)-1^6-(cyclopent-1-en-1-yl)-4^5-fluoro-6-methyl-5-oxa-2,8-diaza-1(5,3)-pyrazolo[1,5-a]pyrimidin-4(3,2)-pyridinacyclononaphan-9-one], the IC50 [3] is reported as 2.07 µM, the IC50 [4] is reported as > 10 µM and the IC50 [1] is reported as 0.013 µM. The IC50 [5] was > 10 µM.
`COc1ccc(-c2c3nc4c(cnn4c2N)C(=O)NC[C@H](C)Oc2ncc(F)cc2CN3)cc1` [Example 59, (S, 1^3E, 1^4E)-1^7-amino-4^5-fluoro-1^6-(4-methoxyphenyl)-6-methyl-5-oxo-2,8-diaza-1(5,3)-pyrazolo[1,5-a]pyrimidin-4(3,2)-pyridinacyclononaphan-9-one] was tested, and the IC50 [4] was 0.13 µM, the IC50 [1] was 0.0024 µM and the IC50 [5] was 0.038 µM.
`CNC(=O)Nc1ccc(-c2cn3ncc4c3nc2NCc2cc(F)cnc2O[C@@H](C)CNC4=O)cc1` [Compound 32, 1-(4-((S, 1^3E, 1^4E)-4^5-fluoro-6-methyl-9-oxo-5-oxa-2,8-diaza-1(5,3)-pyrazolo[1,5-a]pyrimidin-4(3,2)-pyridinacyclononaphan-1^6-yl)phenyl)-3-methylurea] gave an IC50 [4] of 0.0982 µM, an IC50 [1] of 0.0142 µM and an IC50 [5] of 0.059 µM.
`C[C@H]1CNC(=O)c2cnn3cc(-c4ccc(Nc5ncco5)cc4)c(nc23)NCc2cc(F)cnc2O1` [Compound 42, (S, 1^3E, 1^4E)-4^5-fluoro-6-methyl-1^6-(4-(oxazol-2-amino)phenyl)-5-oxa-2,8-diaza-1(5,3)-pyrazolo[1,5-a] pyrimidin-4(3,2)-pyridinacyclononaphan-9-one] was tested, and the IC50 [4] was > 1 µM, the IC50 [1] was > 1 µM and the IC50 [5] was > 1 µM.
`C[C@H]1CNC(=O)c2cnn3cc(-c4ccccc4)c(nc23)NCc2cc(Nc3ccccn3)cnc2O1` [Compound 48, (S, 1^3E, 1^4E)-6-methyl-1^6-phenyl-4^5-(pyridin-2-ylamino)-5-oxa-2,8-diaza-1(5,3)-pyrazolo[1,5-a]pyrimidina-4(3,2)-pyridinacyclononaphan-9-one] was tested, and the IC50 [4] was > 1 µM, the IC50 [1] was > 1 µM and the IC50 [5] was > 1 µM.
`CCOC(=O)Nc1ccc(-c2c3nc4c(cnn4c2N)C(=O)NC[C@H](C)Oc2ncc(F)cc2CN3)cc1F` [Example 69, ethyl (4-((S, 1^3E, 1^4E)-1^7-amino-4^5-fluoro-6-methyl-9-oxo-5-oxa-2,8-diaza-1(5,3)-pyrazolo[1,5-a]pyrimidin-4(3,2)-pyridinacyclononaphan-1^6-yl)-2-fluorophenyl)carbamate] gave an IC50 [4] of 0.016 µM, an IC50 [1] of 0.00087 µM and an IC50 [5] of 0.0028 µM.
Compound `CCNC(=O)Nc1ccc(-c2c3nc4c(cnn4c2N)C(=O)NC[C@H](C)Oc2ncc(F)cc2CN3)cc1` [Example 80, 1-(4-((S, 1^3E, 1^4E)-1^7-amino-4^5-fluoro-6-methyl-9-oxo-5-oxa-2,8-diaza-1(5,3)-pyrazolo[1,5-a]pyrimidin-4(3,2)-pyridinacyclononaphan-1^6-yl)-phenyl)-3-ethylurea] has an IC50 [4] of 0.015 µM, an IC50 [1] of 0.0006 µM and an IC50 [5] of 0.00099 µM.
In the case of `C[C@H]1CNC(=O)c2cnn3c(N)c(-c4cnn(C)c4)c(nc23)NCc2cc(F)cnc2O1` [Example 82, (S, 1^3E, 1^4E)-1^7-amino-4^5-fluoro-6-methyl-1^6-(1-methyl-1H-pyrazol-4-yl)-5-oxa-2,8-diaza-1(5,3)-pyrazolo[1,5-a]pyrimidin-4(3,2)-pyridinacyclononaphan-9-one], the IC50 [4] is reported as 0.138 µM, the IC50 [1] is reported as 0.0011 µM and the IC50 [5] is reported as 0.0095 µM.
`C[C@H]1CNC(=O)c2cnn3c(N)c(-c4ccc(N)cc4)c(nc23)NCc2cc(F)cnc2O1` [Example 60, (S, 1^3E, 1^4E)-1^7-amino-1^6-(4-aminophenyl)-4^5-fluoro-6-methyl-5-oxa-2,8-diaza-1(5,3)-pyrazolino[1,5-a] pyrimidin-4(3,2)-pyridinacyclononaphan-9-one] showed an IC50 [3] of 0.0036 µM, an IC50 [4] of 0.361 µM and an IC50 [1] of 0.0035 µM.
With `C[C@H]1CNC(=O)c2cnn3c(N)c(-c4ccc(NC(=O)OCC(F)(F)F)cc4)c(nc23)NCc2cc(F)cnc2O1` [Example 68, trifluoroethyl (4-((S, 1^3E, 1^4E)-1^7-amino-4^5-fluoro-6-methyl-9-oxo-5-oxa-2,8-diaza-1(5,3)-pyrazolino [1,5-a]pyrimidin-4(3,2)-pyridinacyclononaphan-1^6-yl)-phenyl)carbamate] the IC50 [4] was 0.155 µM, the IC50 [1] was 0.0062 µM and the IC50 [5] was 0.015 µM.
For `C[C@H]1CNC(=O)c2cnn3cc(-c4ccc5[nH]c(=O)[nH]c5c4)c(nc23)NCc2cc(F)cnc2O1` [Compound 38, (S, 1^3E, 1^4E)-4^5-fluoro-6-methyl-1^6-(2-oxo-2,3-dihydro-1H-benzo[d]imidazol-5-yl)-5-oxo-2,8-diaza-1(5,3)-pyrazolo[1,5-a]pyrimidin-4(3,2)-pyridinacyclononaphan-9-one], the IC50 [3] was > 1 µM, the IC50 [4] was > 1 µM and the IC50 [1] was > 1 µM.
For `COC(=O)NC1CC=C(c2cn3ncc4c3nc2NCc2cc(F)cnc2O[C@@H](C)CNC4=O)CC1` (stereo partly drawn) [Compound 43, methyl (4((S, 1^3E, 1^4E)-4^5-fluoro-6-methyl-9-oxo-5-oxa-2,8-diaza-1(5,3)-pyrazolo[1,5-a]pyrimidin-4(3,2)-pyridinacyclononaphan-1^6-yl)cyclohex-3-en-1-yl)carbamate], the IC50 [3] was > 10 µM, the IC50 [4] was > 10 µM and the IC50 [1] was 0.068 µM. The IC50 [5] was > 10 µM.
In the case of `CCOC(=O)Nc1ccc(-c2c3nc4c(cnn4c2N)C(=O)NCCOc2ncc(F)cc2CN3)cc1` [Example 72, ethyl (4-((1^3E, 1^4E)-1^7-amino-4^5-fluoro-9-oxo-5-oxo-2,8-diaza-1(5,3)-pyrazolo[1,5-a]pyrimidin-4(3,2)-pyridinacyclononaphan-1^6-yl)phenyl)carbamate], the IC50 [4] is reported as 0.014 µM, the IC50 [1] is reported as 0.00056 µM and the IC50 [5] is reported as 0.0014 µM.
`Nc1c(-c2ccccc2)c2nc3c(cnn13)C(=O)NCCCc1ncc(F)cc1CN2` [Example 73, (1^3E, 1^4E)-1^7-(amino)-4^5-fluoro-1^6-phenyl-2,8-aza-1(5,3)-pyrazolo[1,5-a]pyrimidinyl-4(3,2)-pyridinacyclononaphan-9-one] gave an IC50 [4] of 0.238 µM, an IC50 [1] of 0.0044 µM and an IC50 [5] of 0.137 µM.
